# Assays:
# Assay type in all cases: in vivo
# [1] = test system: Panelists; assay: MSG reduction with soy-based vegan chicken nugget: panel sensory rating; conditions: Sample S1: 5 ppm TM1 in soy-based vegan chicken nugget, 1.68 wt % flavoring (chicken), 0.4 wt % MSG, 0.03 wt % purinic ribonucleotide, mean, scale of 0 to 10
# Method: (§1) A test sample and a comparative sample were prepared. The comparative (sample C) was a standard soy-based vegan chicken nugget having 1.68 wt % flavoring (chicken), 0.4 wt % MSG, and 0.03 wt % purinic ribonucleotide. The test sample contained flavoring, MSG, and purinic ribonucleotide in the same amounts as the comparative sample plus 5 ppm of TM1 (sample S1). Panelists were asked to rate the intensity of certain sensory features of the samples on a scale of 0 to 10. Higher numbers indicate greater intensity.
# [2] = test system: Panelists; assay: Umami enhancement of MSG: panel sensory rating of aqueous sodium chloride/MSG samples; conditions: mean, scale of 0 to 10; for Lasting Umami Intensity: Sample C 3.1; for Saltiness Intensity: Sample C 3.6; for Umami Intensity: Sample C 4.0
# Method: A series of test samples and a comparative sample were prepared. The comparative sample (C) contained 0.3 wt % sodium chloride and 0.05 wt % MSG. Two test samples were prepared. Each test sample contained sodium chloride and MSG in the same amounts as the comparative sample plus 2 ppm of TM1 (sample S1) or 5 ppm of TM1 (sample S2). Panelists were asked to rate the intensity of certain sensory features of the samples on a scale of 0 to 10. Higher numbers indicate greater intensity.
# [3] = test system: Panelists; assay: MSG reduction with potato crisp: panel sensory rating; conditions: Sample S1: 5 ppm TM1 on potato crisp, 2 wt % flavoring (sour cream and onion), 0.03 wt % MSG, 0.008 wt % purinic ribonucleotide, mean, scale of 0 to 10
# Method: as §1, with “potato crisp” for “soy-based vegan chicken nugget”, “2” for “1.68”, “(sour cream and onion), 0.03” for “(chicken), 0.4”, “0.008” for “0.03”, “ribonucleotide. This reflects a 75% reduction of the standard amount of MSG used in such products (0.12 wt %).” for “ribonucleotide.”
# [4] = test system: Panelists; assay: Flavor modification of chicken broth: panel sensory rating; conditions: 0.7 wt % sodium chloride, 0.04 wt % MSG, mean, scale of 0 to 10; for Lasting Umami Intensity: Sample C 3.1; for Umami Intensity: Sample C 4.3; for White Meat Intensity: Sample C 4.8; for Saltiness Intensity: Sample C 4.9; for Chicken Flavor Intensity: Sample C 5.3
# Method: A series of test samples and a comparative sample were prepared. The comparative sample (C) was a standard reconstituted chicken broth solution containing 0.7 wt % sodium chloride and 0.04 wt % MSG. Two test samples were prepared. Each test sample contained chicken broth, sodium chloride, and MSG in the same amounts as the comparative sample plus 3 ppm of TM1 (sample S1) or 5 ppm of TM1 (sample S2). Panelists were asked to rate the intensity of certain sensory features of the samples on a scale of 0 to 10. Higher numbers indicate greater intensity.
# [5] = Sample S1: 2 ppm TM1 + 0.3 wt % sodium chloride + 0.05 wt % MSG
# [6] = Sample S2: 5 ppm TM1 + 0.3 wt % sodium chloride + 0.05 wt % MSG, * significant vs C
# [7] = Sample C 2.1, * significant vs C
# [8] = Sample S1: 3 ppm TM1 in chicken broth, * significant vs C
# [9] = Sample S2: 5 ppm TM1 in chicken broth, * significant vs C
# [10] = Sample S2: 5 ppm TM1 in chicken broth
smiles,measurement,setting,value
"C/C(=C\CO)C(=O)NCCCCNC(=O)/C=C/c1ccccc1 [TM1, (E)-N-(4-cinnamamidobutyl)-4-hydroxy-2-methylbut-2-enamide]",Saltiness Intensity,[1]; Sample C 4.6,4.4
same,Umami Intensity,"[1]; Sample C 5.1, * significant vs C",5.8*
same,Lasting Umami Intensity,"[2]; Sample S1: 2 ppm TM1 + 0.3 wt % sodium chloride + 0.05 wt % MSG, * significant vs C",4.2*
same,Saltiness Intensity,[2]; [5],3.8
same,Umami Intensity,[2]; [5],4.8
same,Lasting Umami Intensity,[2]; [6],5.4*
same,Saltiness Intensity,[2]; Sample S2: 5 ppm TM1 + 0.3 wt % sodium chloride + 0.05 wt % MSG,3.8
same,Umami Intensity,[2]; [6],6.0*
same,Lasting Umami Intensity,[3]; [7],2.8*
same,Sour Intensity,[3]; [7],2.9*
same,Saltiness Intensity,[3]; Sample C 2.9,3.1
same,Umami Intensity,"[3]; Sample C 3.0, * significant vs C",3.6*
same,Lasting Umami Intensity,[4]; [8],4.2*
same,Umami Intensity,[4]; [8],5.8*
same,White Meat Intensity,[4]; [8],5.8*
same,Saltiness Intensity,[4]; Sample S1: 3 ppm TM1 in chicken broth,5.2
same,Chicken Flavor Intensity,[4]; [8],6.0*
same,Lasting Umami Intensity,[4]; [9],5.4*
same,Umami Intensity,[4]; [9],6.2*
same,White Meat Intensity,[4]; [10],4.8
same,Saltiness Intensity,[4]; [10],4.8
same,Chicken Flavor Intensity,[4]; [10],5.8
